Measured values as given in EP4458916A1, “PHOTOCATALYTICALLY ACTIVE COATING COMPOSITION, METHOD FOR THE PRODUCTION THEREOF AND USE THEREOF” (priority 2023, dated 2024).

Assay: Immersion test: binding / wash-out of photocatalysts from SolGel coatings (1 h deionised water, UV-VIS signal loss)
Format: physicochemical
Settings: Rezeptur 5 coating on glass, dye 10 bis 40 mM; 1 h deionised water pH 6 ± 1, 22 ± 3 °C; relative UV-VIS signal loss at absorption maximum
Experimental: Für alle Untersuchungen wurden nach Beispiel 8 beschichtete Glasträger verwendet.
Um das Auswaschen der verschiedenen Farbstoffe in den Sol-Gel-Beschichtungen zu beurteilen wurde ein Immersionstest in vollentsalztem Wasser mit einem pH-Wert von (6 ± 1) und einer Wassertemperatur von (22 ± 3) °C für eine Stunde durchgeführt. Dazu wurden zunächst Schichten (Rezeptur 5, Beispiel 4, aufgefüllt mit 3,0 mL 2-Propanol; sh. Tabelle 3) mit erhöhter Farbstoffkonzentration (10 bis 40 mM; um die notwendige Auflösung bei der dünnen Schicht zu erreichen) auf Glas-Objektträgern erzeugt. Diese wurden nach dem Ablüften bei Raumtemperatur (30 min) eine Stunde bei 60°C nachgehärtet. Anschließend wurden die Schichten direkt im UV-VIS-Spektrometer vermessen. Die Ausgangswerte (Absorptionsmaximum des jeweiligen Farbstoffs) sollten dabei zwischen 0,05 A.U. und 1,50 A.U. liegen.
Nach einer Stunde in VE-Wasser wurden die Prüfkörper getrocknet und erneut gemessen. Aus den beiden Messungen wurde ein relativer Signalverlust in Prozent bei dem farbstoffspezifischen Absorptionsmaximum bestimmt.
Dieser Immersionstest diente dazu, das Auswaschverhalten verschiedener Farbstoffe aus Beschichtungssystemen zu beurteilen. Weiter soll er dabei helfen, verschiedene Farbstoffklassen oder verschiedene Farbstoffderivate einer Farbstoffklasse bezüglich dieser Charakteristik miteinander zu vergleichen. Die Ergebnisse sind in den folgenden Tabellen sortiert nach Stoffgruppen zusammengefasst: […]

With `CC(C)(O)c1cc[n+](CC2=Cc3cccc4cccc(c34)C2=O)cc1` [S-25a] the “Verlust durch Auswaschen” value was 8%.
